Measurements as given in ChEMBL document CHEMBL1862790, “Optimisation of fenarimol series for the treatment of Chagas disease”.

Key:
Trypanosoma cruzi [1] = assay: microbe, parasite or virus in culture; format: functional, Tulahuen LacZ, Clone C4; conditions: Trypanosoma cruzi, Tulahuen LacZ, Clone C4
Trypanosoma cruzi [2] = assay: microbe, parasite or virus in culture; format: functional, organism-based, Tulahuen LacZ, Clone C4; conditions: Trypanosoma cruzi, Tulahuen LacZ, Clone C4
[3] = DNDI: Cytotoxicity against L-6 rat myoblasts from skeletal muscle cells; conditions: L6 rat skeletal muscle myoblast cells

**Q.** With Cn1cc(C(NC2CCN(c3ccc(C(F)(F)F)cc3)CC2)c2cccnc2)cn1 (stereo not given) as the compound, how does the IC90 (Trypanosoma cruzi [1]) read?
**A.** 249 nM

**Q.** What about the IC50 (Trypanosoma cruzi [2]) of the same compound?
**A.** 102 nM

**Q.** And the IC50 ([3]; IC50)?
**A.** > 100000 nM

**Q.** For Fc1cc(Cl)ccc1C(NC1CCN(c2ccc(OC(F)(F)F)cc2)CC1)c1cccnc1 (stereo not given), which IC90 (Trypanosoma cruzi [1]) is on record?
**A.** 24 nM

**Q.** What about the IC50 (Trypanosoma cruzi [2]) of the same compound?
**A.** 8 nM

**Q.** What about the IC50 ([3]; IC50) of the same compound?
**A.** 48000 nM

**Q.** Which IC90 (Trypanosoma cruzi [1]) does the source give for CC(C)(C)C(=O)N1CCN(C(c2cncnc2)c2ccc(Cl)cc2F)CC1 (stereo not given) here?
**A.** 302 nM

**Q.** And the IC50 (Trypanosoma cruzi [2])?
**A.** 80.5 nM

**Q.** And the IC50 ([3]; IC50)?
**A.** > 100000 nM

**Q.** For CCn1cc(C(NC2CCN(c3ccc(F)c(F)c3)CC2)c2cccnc2)cn1 (stereo not given), which IC90 (Trypanosoma cruzi [1]) is on record?
**A.** 328 nM

**Q.** What about the IC50 (Trypanosoma cruzi [2]) of the same compound?
**A.** 99 nM

**Q.** And the IC50 ([3]; IC50)?
**A.** 62300 nM

**Q.** For FC(c1ccc(Cl)cc1)(c1cccnc1)c1ccccc1Cl (stereo not given), which IC90 (Trypanosoma cruzi [1]) is on record?
**A.** 1000 nM

**Q.** And the IC50 (Trypanosoma cruzi [2])?
**A.** 170 nM

**Q.** What about the IC50 ([3]; IC50) of the same compound?
**A.** 59700 nM

**Q.** What does the source list for CC(C)c1ccc(NC(=O)N2CCN(C(c3ccc(Cl)cc3)c3cncnc3)CC2)cc1 (stereo not given)?
**A.** IC90 (Trypanosoma cruzi [1]): 36 nM; IC50 (Trypanosoma cruzi [2]): 11 nM; IC50 ([3]; IC50): 36000 nM

**Q.** Which IC90 (Trypanosoma cruzi [1]) does the source give for Fc1cc(Cl)ccc1C(NC1CCN(c2ccccc2C(F)(F)F)CC1)c1cccnc1 (stereo not given) here?
**A.** 64.5 nM

**Q.** What about the IC50 (Trypanosoma cruzi [2]) of the same compound?
**A.** 17 nM

**Q.** What about the IC50 ([3]; IC50) of the same compound?
**A.** 57000 nM

**Q.** With CCS(=O)(=O)NC1CCN(C(c2ccc(C(F)(F)F)cc2)c2cnccn2)CC1 (stereo not given) as the compound, how does the IC90 (Trypanosoma cruzi [1]) read?
**A.** 6470 nM

**Q.** And the IC50 (Trypanosoma cruzi [2])?
**A.** 1140 nM

**Q.** And the IC50 ([3]; IC50)?
**A.** > 100000 nM

**Q.** Which IC90 (Trypanosoma cruzi [1]) does the source give for CCCCOC(Cc1ccc(Cl)nc1)c1ccc(Cl)cc1Cl (stereo not given) here?
**A.** > 10000 nM

**Q.** What about the IC50 (Trypanosoma cruzi [2]) of the same compound?
**A.** > 10000 nM

**Q.** What about the IC50 ([3]; IC50) of the same compound?
**A.** 91400 nM

**Q.** With N#Cc1ccc(C(NC2CCN(C(=O)c3ccccc3)CC2)c2cccnc2)cc1 (stereo not given) as the compound, how does the IC90 (Trypanosoma cruzi [1]) read?
**A.** 948 nM

**Q.** What about the IC50 (Trypanosoma cruzi [2]) of the same compound?
**A.** 433 nM

**Q.** What about the IC50 ([3]; IC50) of the same compound?
**A.** > 100000 nM

**Q.** What does the source list for Clc1ccc(C(NCC2CCCCC2)c2cccnc2)cc1 (stereo not given)?
**A.** IC90 (Trypanosoma cruzi [1]): 80 nM; IC50 (Trypanosoma cruzi [2]): 32 nM; IC50 ([3]; IC50): 59700 nM

**Q.** Which IC90 (Trypanosoma cruzi [1]) does the source give for CON(C)C(=O)c1cccc(C(O)(c2ccc(Cl)cc2)c2cccnc2)c1 (stereo not given) here?
**A.** 130 nM

**Q.** What about the IC50 (Trypanosoma cruzi [2]) of the same compound?
**A.** 38 nM

**Q.** And the IC50 ([3]; IC50)?
**A.** > 100000 nM

**Q.** What does the source list for O=C(c1cc(C(O)(c2ccc(Cl)cc2)c2cccnc2)ccc1Cl)N1CCOCC1 (stereo not given)?
**A.** IC90 (Trypanosoma cruzi [1]): 470 nM; IC50 (Trypanosoma cruzi [2]): 120 nM; IC50 ([3]; IC50): > 100000 nM

**Q.** For N#Cc1ccccc1N1CCC(NC(c2cccnc2)c2ccc(Cl)cc2F)CC1 (stereo not given), which IC90 (Trypanosoma cruzi [1]) is on record?
**A.** 24.9 nM

**Q.** And the IC50 (Trypanosoma cruzi [2])?
**A.** 7.48 nM

**Q.** What about the IC50 ([3]; IC50) of the same compound?
**A.** 39900 nM

**Q.** Which IC90 (Trypanosoma cruzi [1]) does the source give for NC(=O)C1CCN(C(c2ccc(C(F)(F)F)cc2)c2cnccn2)CC1 (stereo not given) here?
**A.** > 10000 nM

**Q.** And the IC50 (Trypanosoma cruzi [2])?
**A.** 6410 nM

**Q.** What about the IC50 ([3]; IC50) of the same compound?
**A.** > 100000 nM

**Q.** Which results are given for CCN(CC)C(=O)c1cccc(C(O)(c2ccc(Cl)cc2)c2cccnc2)c1 (stereo not given)?
**A.** IC90 (Trypanosoma cruzi [1]): 280 nM; IC50 (Trypanosoma cruzi [2]): 150 nM; IC50 ([3]; IC50): > 100000 nM

**Q.** Which IC90 (Trypanosoma cruzi [1]) does the source give for Cn1cc(C(=O)NC2CCN(C(c3ccc(C#N)cc3)c3cccnc3)CC2)c(C(F)(F)F)n1 (stereo not given) here?
**A.** 77.5 nM

**Q.** And the IC50 (Trypanosoma cruzi [2])?
**A.** 28.5 nM

**Q.** What about the IC50 ([3]; IC50) of the same compound?
**A.** > 100000 nM

**Q.** With O=C(NC1CCN(C(c2ccc(C(F)(F)F)cc2)c2cnccn2)CC1)c1ccc(Cl)cc1 (stereo not given) as the compound, how does the IC90 (Trypanosoma cruzi [1]) read?
**A.** 230 nM

**Q.** And the IC50 (Trypanosoma cruzi [2])?
**A.** 78 nM

**Q.** And the IC50 ([3]; IC50)?
**A.** 52900 nM

**Q.** Which results are given for OC(c1ccc(Cl)cc1)(c1cncnc1)c1cccc(F)c1 (stereo not given)?
**A.** IC90 (Trypanosoma cruzi [1]): 1900 nM; IC50 (Trypanosoma cruzi [2]): 840 nM; IC50 ([3]; IC50): > 100000 nM

**Q.** With CS(=O)(=O)NC1CCN(C(c2ccc(C#N)cc2)c2cccnc2)CC1 (stereo not given) as the compound, how does the IC90 (Trypanosoma cruzi [1]) read?
**A.** > 1000 nM

**Q.** And the IC50 (Trypanosoma cruzi [2])?
**A.** 600 nM

**Q.** What about the IC50 ([3]; IC50) of the same compound?
**A.** > 100000 nM

**Q.** What does the source list for CC(C)C(=O)N1CCN(C(c2cccnc2)c2ccc(Cl)cc2F)CC1 (stereo not given)?
**A.** IC90 (Trypanosoma cruzi [1]): 220 nM; IC50 (Trypanosoma cruzi [2]): 62 nM; IC50 ([3]; IC50): > 100000 nM

**Q.** Which results are given for N#Cc1ccc(C(c2cccnc2)N2CCC(NC(=O)c3nccs3)CC2)cc1 (stereo not given)?
**A.** IC90 (Trypanosoma cruzi [1]): 358 nM; IC50 (Trypanosoma cruzi [2]): 138 nM; IC50 ([3]; IC50): > 100000 nM

**Q.** With Cc1nc(C)c(C(=O)NC2CCN(C(c3ccc(C(F)(F)F)cc3)c3cccnc3)CC2)s1 (stereo not given) as the compound, how does the IC90 (Trypanosoma cruzi [1]) read?
**A.** 31 nM

**Q.** What about the IC50 (Trypanosoma cruzi [2]) of the same compound?
**A.** 18 nM

**Q.** And the IC50 ([3]; IC50)?
**A.** 55700 nM

**Q.** Which results are given for Cc1ncsc1C(=O)N1CCN(C(c2ccc(C#N)cc2)c2cccnc2)CC1 (stereo not given)?
**A.** IC90 (Trypanosoma cruzi [1]): > 1000 nM; IC50 (Trypanosoma cruzi [2]): 513 nM; IC50 ([3]; IC50): > 100000 nM

**Q.** With OC(c1ccc(Cl)cc1)(c1cccnc1)c1ccsc1 (stereo not given) as the compound, how does the IC90 (Trypanosoma cruzi [1]) read?
**A.** 154 nM

**Q.** What about the IC50 (Trypanosoma cruzi [2]) of the same compound?
**A.** 78 nM

**Q.** What about the IC50 ([3]; IC50) of the same compound?
**A.** > 100000 nM

**Q.** With Fc1cc(Cl)ccc1C(NC1CCN(c2ccccc2F)CC1)c1cccnc1 (stereo not given) as the compound, how does the IC90 (Trypanosoma cruzi [1]) read?
**A.** 10 nM

**Q.** And the IC50 (Trypanosoma cruzi [2])?
**A.** 4.5 nM

**Q.** And the IC50 ([3]; IC50)?
**A.** 53200 nM

**Q.** What does the source list for O=C(Cc1ccccc1)N1CCN(C(c2ccc(Cl)cc2)c2cncnc2)CC1 (stereo not given)?
**A.** IC90 (Trypanosoma cruzi [1]): 850 nM; IC50 (Trypanosoma cruzi [2]): 500 nM; IC50 [3]: 69500 nM

**Q.** With O=S(=O)(C1CCCCC1)N1CCC(NC(c2cnccn2)c2ccc(F)cc2F)CC1 (stereo not given) as the compound, how does the IC90 (Trypanosoma cruzi [1]) read?
**A.** 920 nM

**Q.** What about the IC50 (Trypanosoma cruzi [2]) of the same compound?
**A.** 420 nM

**Q.** What about the IC50 ([3]; IC50) of the same compound?
**A.** > 100000 nM

**Q.** Which results are given for COC(=O)N(OC)c1ccccc1COc1ccn(-c2ccc(Cl)cc2)n1 [PYRACLOSTROBIN]?
**A.** IC90 (Trypanosoma cruzi [1]): > 10000 nM; IC50 (Trypanosoma cruzi [2]): 6460 nM; IC50 [3]: 43400 nM

**Q.** With Clc1ccc(C(NCCN2CCOCC2)(c2cccnc2)c2ccccc2Cl)cc1 (stereo not given) as the compound, how does the IC90 (Trypanosoma cruzi [1]) read?
**A.** 6230 nM

**Q.** And the IC50 (Trypanosoma cruzi [2])?
**A.** 654 nM

**Q.** What about the IC50 ([3]; IC50) of the same compound?
**A.** 56500 nM

**Q.** With CN(C)CCOc1ncc(C(O)(c2ccc(Cl)cc2)c2cccnc2)cn1 (stereo not given) as the compound, how does the IC90 (Trypanosoma cruzi [1]) read?
**A.** > 1000 nM

**Q.** What about the IC50 (Trypanosoma cruzi [2]) of the same compound?
**A.** > 1000 nM

**Q.** What about the IC50 ([3]; IC50) of the same compound?
**A.** > 100000 nM

**Q.** With O=C(NC1CCN(C(c2ccc(C(F)(F)F)cc2)c2cnccn2)CC1)c1ccccc1 (stereo not given) as the compound, how does the IC90 (Trypanosoma cruzi [1]) read?
**A.** 720 nM

**Q.** And the IC50 (Trypanosoma cruzi [2])?
**A.** 200 nM

**Q.** What about the IC50 ([3]; IC50) of the same compound?
**A.** > 100000 nM

**Q.** With O=C(Cc1ccccc1)NC1CCN(C(c2cnccn2)c2ccc(F)cc2F)CC1 (stereo not given) as the compound, how does the IC90 (Trypanosoma cruzi [1]) read?
**A.** > 1000 nM

**Q.** What about the IC50 (Trypanosoma cruzi [2]) of the same compound?
**A.** 700 nM

**Q.** What about the IC50 ([3]; IC50) of the same compound?
**A.** > 100000 nM

**Q.** Which IC90 (Trypanosoma cruzi [1]) does the source give for O=S(=O)(c1ccc(Cl)cc1)N1CCN(C(c2cncnc2)c2ccc(Cl)cc2F)CC1 (stereo not given) here?
**A.** 110 nM

**Q.** And the IC50 (Trypanosoma cruzi [2])?
**A.** 60 nM

**Q.** What about the IC50 ([3]; IC50) of the same compound?
**A.** > 100000 nM

**Q.** What does the source list for CC(C)(C)OC(=O)N1CCC(NC(c2ccc(C(F)(F)F)cc2)c2cccnc2)CC1 (stereo not given)?
**A.** IC90 (Trypanosoma cruzi [1]): 59 nM; IC50 (Trypanosoma cruzi [2]): 15 nM; IC50 ([3]; IC50): 57600 nM
